Like-named read-outs stand apart in the source and are kept apart here.
What was measured:
[1] = target: T1, PfGCN5 bromodomain (Plasmodium falciparum, UniProt Q8IB67); assay: biochemical; assay type: binding; conditions: for Kd: PrOF NMR titration, for 9 average of W1454 and W1379, NS = non-saturating, read-out: PfGCN5 Kd; for Initial Mixture PfGCN5 PrOF NMR Δδ: hit mixture containing the fragment, 400 µM each fragment
Procedure: (§1) The screening workflow consists of two dependent steps: 1) a PrOF NMR screen of the 5FW-labeled proteins and a cocktail of 4–5 fragments in a single NMR tube; 2) a ^1H CPMG NMR binding assay to deconvolute the hit mixtures for each protein (Figure 1). In the first step, a dual-protein PrOF NMR spectrum was obtained in which 5FW-PfGCN5, 5FW-BPTF (~ 50 µM each) and mixtures of fragments (400 µM individual fragment) were present in the same NMR tube. […] Chemical shift perturbations indicating a ligand binding event were based on a prior cutoff of Δδ ≥ 0.030 ppm as the definition for a hit mixture. This cutoff was based on a statistical analysis of chemical shift perturbations from a prior BRD4 D1 fragment screen and are described further in the experimental section and in Table S2.
(§2) PrOF NMR. PrOF NMR spectra were obtained on a Bruker Avance III HD 500 with the 5 mm Prodigy TCI inverse cryoprobe (^19F S:N 2000:1). […] The DMSO concentration for all experiments was kept constant at 1%. […] For the PrOF NMR screen, 5FW-BPTF and 5FW-PfGCN5 (35–40 µM in 50 mM phosphate, 100 mM NaCl, pH 7.4) were tested with mixtures of 4–5 fragments, where each individual fragment was 400 µM. […] A 10 Hz line broadening was applied. Titrations were fit to Equation (2), where p is the protein concentration and L is the ligand concentration. (2) Δδ=Δδmax × (Kd+P+L ) − (((Kd + P + L )^2) − 4PL)/2P
(§3) A PrOF NMR binding event is characterized as a change in chemical shift (Δδ) from the protein-only spectrum to the protein + fragment mixture spectrum. We used a prior cutoff of Δδ ≥ 0.030 ppm as the definition of a hit mixture, based on a statistical analysis of chemical shift perturbations from a prior BRD4 D1 fragment screen.

[2] = target: BRD4 D1; conditions: cited from earlier work
[3] = target: T1, PfGCN5 bromodomain; assay: 1H CPMG NMR deconvolution of hit mixtures, PfGCN5; assay type: binding; conditions: 10 µM protein, 100 µM ligand; for 1H CPMG NMR % Drop in Resonance Intensity PfGCN5: for 9 from competition experiments (footnote a)
Procedure: (§4) The second step is a ^1H CPMG NMR deconvolution of the hit mixtures using the non-fluorine-labeled bromodomains. ^1H CPMG NMR employs a T2 filter to take advantage of the difference in transverse relaxation time between protein and small molecules to filter out the bound-state ligand(s). Unlike the PrOF NMR assay, a single protein is assayed in each experiment. A binding event is characterized by a decrease in ligand resonance intensity from the ligand alone spectrum to the ligand + protein spectrum. A hit is defined as a decrease in resonance intensity ≥ 20%. The ^1H CPMG NMR assay can be tuned by changing the protein or ligand concentration, filter length (Figure 1), or hit criteria depending on how stringent the desired hit rate is. The number of ^1H CPMG NMR deconvolution experiments is directly informed from the first step. If a mixture from the first step was only a hit for one protein, a single ^1H CPMG NMR deconvolution experiment is needed. If a mixture from the first step was a hit for both proteins, two separate ^1H CPMG NMR deconvolutions experiments are needed to determine the fragments that bind to each protein.
(§5) ^1H CPMG NMR. ^1H CPMG NMR screen data were acquired on Bruker Avance III HD 500 with the 5 mm Prodigy TCI cryoprobe inverse cryoprobe (^1H 2500:1 S/N). Competition ^1H CPMG NMR data were acquired on Bruker 700 MHz Avance with a CryoProbe 5 mm TXI (^1H S:N with H2O suppression (2mM sucrose) - 900:1) and excitation sculpting water suppression. Proteins were present at 10 µM in 50 mM phosphate, 100 mM NaCl, pH 7.4 in 100% D2O. In separate NMR tubes, a ^1H CPMG NMR pulse was applied to a 1) mixture of ligands (individual ligands present at 100 µM for the screen and 50 µM for competition experiments) and 2) ligands + protein. […] For the competition experiments, τ was increased to 4.0 ms.

[4] = target: T2, BPTF bromodomain (Homo sapiens, UniProt Q12830); assay: PrOF NMR (dual-protein screen of mixtures, titrations) with 5FW-BPTF; assay type: binding; parameters: against the bromodomains of BPTF and Plasmodium falciparum GCN5 (PfGCN5); his6; made in house; conditions: for Initial Mixture BPTF PrOF NMR Δδ: hit mixture containing the fragment, 400 µM each fragment
Procedure: as §1, §2, §3

[5] = target: T2, BPTF bromodomain; assay: 1H CPMG NMR deconvolution of hit mixtures, BPTF; assay type: binding; parameters: deconvolution of the hit mixtures using the non-fluorine-labeled bromodomains; made in house; host or cells: E. coli BL21(DE3); conditions: 10 µM protein, 100 µM ligand; for 1H CPMG NMR % Drop in Resonance Intensity BPTF: for 9 from competition experiments (footnote a)
Procedure: as §4, §5

[6] = target: T1, PfGCN5 bromodomain; assay: Competition 1H CPMG NMR with PfGCN5; assay type: binding; conditions: competitor at or above the protein concentration
Description: The competition ^1H CPMG NMR and PrOF NMR assays were employed to further probe the binding mode of 9 to PfGCN5. […] At high concentrations, at or above the protein concentration, the competition maxed out at ~ 50% (Figure 2, Figure S10, Table S5). Conversely, TP-238 was able to compete 9 off from BPTF at low concentrations.
^1H CPMG NMR. ^1H CPMG NMR screen data were acquired on Bruker Avance III HD 500 with the 5 mm Prodigy TCI cryoprobe inverse cryoprobe (^1H 2500:1 S/N). Competition ^1H CPMG NMR data were acquired on Bruker 700 MHz Avance with a CryoProbe 5 mm TXI (^1H S:N with H2O suppression (2mM sucrose) - 900:1) and excitation sculpting water suppression. Proteins were present at 10 µM in 50 mM phosphate, 100 mM NaCl, pH 7.4 in 100% D2O. In separate NMR tubes, a ^1H CPMG NMR pulse was applied to a 1) mixture of ligands (individual ligands present at 100 µM for the screen and 50 µM for competition experiments) and 2) ligands + protein. For competition experiments, the ligands were used individually, and the competitor ligands were spiked into tube 2. ^1H CPMG NMR parameters for the screen: NS = 128, acquisition time = 2 s, τ = 2.5 ms, and L = 120. For the competition experiments, τ was increased to 4.0 ms.

[7] = previous screen, NC = noncompetitive with JQ1 in 1H CPMG competition
[8] = PrOF NMR titration, NS = non-saturating, NB = no binding

T1 sequence (Q8IB67 entry or part of it): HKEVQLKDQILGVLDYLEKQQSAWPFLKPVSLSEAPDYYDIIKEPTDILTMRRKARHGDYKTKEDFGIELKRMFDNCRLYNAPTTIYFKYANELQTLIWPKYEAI

SMILES	Initial Mixture PfGCN5 PrOF NMR Δδ [1]	Kd ([2]; data from previous screen) [µM]	PfGCN5 CPMG % decrease [3] [%]	Initial Mixture BPTF PrOF NMR Δδ [4]	BPTF CPMG % decrease [5] [%]	Kd [2, 7] [µM]	also measured
CCC(=O)NCc1nccc(N(C)C)n1 [Fragment 3]	++++ (++++ = Δδ > 0.2)	> 400	82	- (For PrOF NMR = Δδ < 0.029 ppm)			Kd [1]: > 1000 µM; 1H CPMG NMR % Drop in Resonance Intensity PfGCN5 [3]: ++++ (++++ = 80–99.9%)
CS(=O)(=O)N1CCC2(CC1)OC(=O)c1ccccc12 [Fragment 7]	+++ (+++ = 0.1 < Δδ < 0.199)	> 400	100	+++ (+++ = 0.1 < Δδ < 0.199)	49		Kd [1]: 150 µM; 1H CPMG NMR % Drop in Resonance Intensity BPTF [5]: ++ (++ = 40–59.9%); 1H CPMG NMR % Drop in Resonance Intensity PfGCN5 [3]: +++++ (+++++ = 100%); Kd ([4]; PrOF NMR titration): > 1 mM
CCCC(=O)Nc1cc2c3c(c1)CC(=O)N3CCC2 [Fragment F2666-0003]			100		54	840	
CN1C[C@H](Nc2cnn(C)c(=O)c2Br)C[C@H](c2ccccc2)C1 [GSK4027, reference compound]							PrOF NMR titration with 5FW-PfGCN5, result in words [1]: binds PfGCN5 strongly; competition maximum in 1H CPMG NMR competition with 9 [6]: ~ 50%
CCCCNc1nc2c([nH]1)c(=O)n(C)c(=O)n2C [Fragment F3176-0122]			77		80	2500	
CC(C)CNc1ncc([N+](=O)[O-])c(N)n1 [Fragment 5]	- (For PrOF NMR = Δδ < 0.029 ppm)	> 400		++ (++ = 0.050 < Δδ < 0.099)	65		1H CPMG NMR % Drop in Resonance Intensity BPTF [5]: +++ (+++60–80%); Kd [4, 8]: > 1 mM
Cc1cc(-c2nnc(NC(=O)C3CC3)o2)nn1C [Fragment F5036-0073]					55	1200	
Cc1nnc2c3ccccc3c(N[C@@H](C)[C@H](c3ccccc3)N(C)C)nn12 [L-Moses, reference compound]							competition maximum in 1H CPMG NMR competition with 9 [6]: ~ 50%
CCOC(=O)c1sc(NC(=O)C2CCOC2)cc1C (centres unmarked) [Fragment F0882-2747]			63		54	660	
CCOC(=O)c1c(NC(C)=O)sc(C)c1C [Fragment F0777-0038]			100		100	820	
Cc1cccc(NC(=O)C2CCN(S(C)(=O)=O)CC2)c1 [Fragment 6]	- (For PrOF NMR = Δδ < 0.029 ppm)	> 400		+ (+ = 0.030 < Δδ < 0.049)	25		selectivity, binds PfGCN5 over BPTF ([1]; ratio of Kd values): > 6 fold; Bind BRD4? ([2]; Y/N, previous screen): not bind; 1H CPMG NMR % Drop in Resonance Intensity BPTF [5]: + (+ = 20–39.9%); Kd [4, 8]: 0.54 mM
COC(=O)N1CCC(CNC(=O)c2ccco2)CC1 [Fragment 2]	+++ (+++ = 0.1 < Δδ < 0.199)	450	100	++ (++ = 0.050 < Δδ < 0.099)			Kd [1]: 360 µM; 1H CPMG NMR % Drop in Resonance Intensity PfGCN5 [3]: +++++ (+++++ = 100%)
N#Cc1cccc(C(=O)NC2CCC3OCCOC3C2)c1 (centres unmarked) [Fragment 1]	++ (++ = 0.050 < Δδ < 0.099)	> 400	100	- (For PrOF NMR = Δδ < 0.029 ppm)			Kd [1]: > 1000 µM; 1H CPMG NMR % Drop in Resonance Intensity PfGCN5 [3]: +++++ (+++++ = 100%)
Cc1ccc2c(C#N)c(N)sc2c1 [Fragment 4]	- (For PrOF NMR = Δδ < 0.029 ppm)	> 400		+ (+ = 0.030 < Δδ < 0.049)	100		1H CPMG NMR % Drop in Resonance Intensity BPTF [5]: +++++ (+++++ = 100%); BPTF Kd [4, 8]: no binding; Kd [4, 8]: > 1 mM

From PMC7504435, “Combined Protein- and Ligand-Observed NMR Workflow to Screen Fragment Cocktails against Multiple Proteins: A Case Study Using Bromodomains” (Molecules, 2020)
